Results on one compound are retold here after patent publication US20260124213A1, “STAPHYLOCOCCUS AUREUS PBP4 INHIBITORS AND METHOD OF USE” (UNIVERSITY OF ROCHESTER, priority 2022, published 2026).

For the experiment, the system named is pbp4 expression in USA300. Description: Quantitative reverse transcriptase PCR of pbp4 transcript. It counts as cell-based, Staphylococcus aureus. The conditions noted are these: 25 μM, 3 hour. The protocol: Quantitative Reverse Transcriptase PCR. PBP4 transcript titers of bacterial cells exposed to putative PBP4 inhibitors were measured using real time quantitative PCR (RT-qPCR), as previously described (Chojnacki, et al. Antibiotics, 2021, 10, 369). Briefly, overnight cultures of S. aureus strains USA300, USA300Δpbp4, CRB, and CRBΔpbp4 were grown overnight in MH media, diluted (1:100 dilution) in fresh media and sub-cultured to a final OD600 nm of 0.2 at 37° C. with aeration. […] Cells were washed with PBS buffer, and collected via centrifugation at 1,250×g for 10 minutes. Total bacterial RNA was isolated from cell pellets using Qiagen® RNeasy kits, following the manufacturer's guidelines for prokaryotic RNA isolation (Qiagen®, Germantown, MD). A total of 2 μg RNA was DNase treated and repurified using RNeasy kits.
To measure pbp4 expression, a total of 400 ng of total bacterial RNA was used as a template for qRT-PCR using pbp4 primers (forward, 5′-[…]-3′; reverse, 5′-[…]-3′) and a total of 4 ng of total bacterial RNA was used as a template for primers specific for 16S rRNA (forward, 5′-[…]-3′; reverse, 5′-[…]-3′). Bacterial RNA was amplified and measured using PerfeCTa® SYBR Green FastMix® and qScript® cDNA SuperMix® kits following the manufacturer's recommendations (QuantaBio®, Beverly, MA). […]

On to `O=C(Nc1ccc2[nH]c(-c3cccs3)nc2c1)c1ccco1` [Compound 1 (7729837)], for which the “pbp4 expression (qRT-PCR)” value was “slightly reduced”.
